# Assays:
# [1] = Inhibition of GP-pNA conversion to pNA by 2% bovine serum; assay type: biochemical; conditions: 2% BS in PBS
# CD26 = target: T1, CD26 (Homo sapiens, UniProt P27487); assay: Inhibition of CD26-catalysed conversion of GP-pNA to GP+pNA (pNA release, absorption at 400 nm); assay type: biochemical; conditions: 50 μM GP-pNA
# T1 construct: made in house
# Description: The CD26 catalytic reaction was measured by recording the increase of absorption caused by pNA release at 400 nm.
# To reveal whether CD26 recognizes such synthetic di/tripeptide derivatives of lipophilic nucleoside analogues as a substrate, 50 μM CAM-405 or CAM-431 was exposed to 5.7 mUnits of purified CD26, and the conversion of CAM-405 or CAM-431 to respectively CAM-212 or CAM-403 (Val-NAP-TSAO) was recorded in function of incubation time by HPLC analysis. […] The inhibitory activity of any dipeptide can be evaluated by the above mentioned assay.
# [2] = Conversion of prodrugs to parent compound by human serum diluted in PBS; assay type: in vitro ADME; conditions: 2% HS in PBS
# Description: (§1) Human and bovine serum were incubated for 3 hr, 6 hr and/or 24 hr at 37° C. in the presence of 50 μM CAM-405. The sera were diluted in PBS at a final concentration of 0.5, 1, 2.5 or 5%. […] The longer the incubation time, and the higher the serum concentration used, the faster the conversion of CAM-405 to CAM-212 occurred (FIG. 4). As also noted for CD26, HS- and BS-catalysed reaction slowed down in function of time, and was not linearly proportional with serum concentration (FIG. 4). These findings provide again evidence for a pronounced feed-back inhibition of dipeptidyl-peptidase activity in human and bovine serum by the released Val-Pro dipeptide. HS was more efficient in converting CAM-405 to CAM-212 than BS (FIG. 4). Since 1% HS is able to hydrolyse ˜20% of 50 μM CAM-405 within 3 hrs of incubation, it could be calculated that undiluted serum would have been able to convert this prodrug amount to its parent compound at a hundred fold higher speed, that is, within 1.8 min, provided that no feed-back inhibition would have occurred (as expected in the intact organism where release of Pro-Val would immediately result in disappearance from the plasma due to several mechanisms including organ uptake, renal excretion, etc.).
# Only a very limited amount of NAP-TSAO (but not D-Pro-NAP-TSAO) had been detected (FIG. 6).
# (§2) Ten percent BS or HS converted 40 to 70% of PI-2 to PI-1 in one hour (FIG. 10). Two percent BS and HS converted PI-2 to PI-1 by 8% and 25%, respectively. After 4 hrs, 35% and 95% of compound was hydrolyzed by BS and HS, respectively (FIG. 11).
# (§3) The TSAO derivatives depicted in FIG. 1 can be synthesised as described below. GlyPro-pNA (GP-pNA), Diprotin A and Val-Pro were purchased from Sigma-Aldrich (Bornem, Belgium). CD26 was purified as described before [De Meester et al. J. Immunol. Methods (1996), 189: 99-105]. Foetal bovine serum (FBS) was obtained from Integro (Dieren, The Netherlands). Human serum represented a pooled serum that was derived from 10 healthy volunteers (blood donors). Human lymphocyte CEM cells were derived from the ATCC (Rockville, Md.).
# [3] = Inhibition of GP-pNA conversion to pNA by 2% human serum; assay type: biochemical; conditions: 2% HS in PBS
# purified CD26 = target: T2, purified CD26 (Homo sapiens, UniProt P27487); assay: Conversion of peptide prodrugs to parent compound by purified CD26 (HPLC); assay type: biochemical; conditions: purified CD26; within 60 min
# T2 construct: made in house
# T2 sequence (P27487 whole entry): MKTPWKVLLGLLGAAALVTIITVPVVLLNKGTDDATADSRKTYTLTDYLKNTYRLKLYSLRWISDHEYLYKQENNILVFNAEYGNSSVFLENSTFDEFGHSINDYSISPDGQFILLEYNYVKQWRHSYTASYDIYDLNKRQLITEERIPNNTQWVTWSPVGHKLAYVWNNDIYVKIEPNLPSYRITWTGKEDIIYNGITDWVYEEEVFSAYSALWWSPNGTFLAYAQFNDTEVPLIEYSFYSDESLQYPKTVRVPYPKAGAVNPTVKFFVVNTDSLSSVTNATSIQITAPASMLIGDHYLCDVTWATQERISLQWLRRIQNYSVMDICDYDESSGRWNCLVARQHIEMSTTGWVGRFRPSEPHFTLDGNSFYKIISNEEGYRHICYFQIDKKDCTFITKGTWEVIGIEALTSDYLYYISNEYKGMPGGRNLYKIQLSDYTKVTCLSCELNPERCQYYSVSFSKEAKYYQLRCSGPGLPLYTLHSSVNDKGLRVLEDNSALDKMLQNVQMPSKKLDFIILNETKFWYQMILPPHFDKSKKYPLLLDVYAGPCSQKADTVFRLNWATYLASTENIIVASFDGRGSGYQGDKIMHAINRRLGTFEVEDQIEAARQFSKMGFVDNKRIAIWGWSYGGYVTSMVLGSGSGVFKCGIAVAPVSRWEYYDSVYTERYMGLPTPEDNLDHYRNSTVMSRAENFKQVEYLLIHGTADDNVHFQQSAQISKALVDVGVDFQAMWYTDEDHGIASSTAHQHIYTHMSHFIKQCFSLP
# How it was run: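 Peptide prodrugs of lipophilic nucleoside analogues were incubated with purified human CD26 at a final concentration of 1.5 milliUnits in PBS at pH 7.5, 37° C, in a 400 μl reaction started by enzyme addition. Samples were mixed with cold methanol to precipitate protein, centrifuged, and the supernatants analysed by reverse-phase HPLC to quantify conversion to the parent compound.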
# [4] = Conversion of prodrugs to parent compound by bovine serum diluted in PBS; assay type: in vitro ADME; conditions: 2% BS in PBS
# Description: as §1, §2, §3
# [5] = time not restated (one hour in the sentence before)
# T1 sequence (P27487 whole entry): as above
smiles,measurement,setting,value
CC(C)CN(C[C@@H](O)[C@H](Cc1ccccc1)NC(=O)O[C@H]1CO[C@H]2OCC[C@H]21)S(=O)(=O)c1ccc(CNC(=O)[C@@H]2CCCN2C(=O)[C@@H](N)C(C)C)cc1 [Val-Pro-PI 1],"Inhibition of GP-pNA conversion to pNA by two percent BS, in words",[1],even more efficiently inhibited
same,"Inhibition of release of pNA from GP-pNA at 20 μM, in words",CD26; 20 μM,could inhibit
same,"Competition with GP-pNA for CD26 at 100 μM, in words",CD26; 100 μM,efficiently competed
same,Compound hydrolyzed by HS after 4 hrs,[2]; 4 hrs,95%
same,Conversion to PI 1 by two percent HS,[2]; [5],25%
same,"Inhibition of HS-catalysed GP-pNA conversion to pNA, in words",[3],competitively inhibited
same,"Conversion of Val-Pro-PI 1 (PI-2) to PI 1 by purified CD26 within 60 min, in words",purified CD26,completely converted
same,Compound hydrolyzed by BS after 4 hrs,[4]; 4 hrs,35%
same,Conversion to PI 1 by two percent BS,[4]; [5],8%
